Measurements taken from patent US20130210846A1, “USE OF NOVEL PAN-CDK INHIBITORS FOR TREATING TUMORS” (BAYER INTELLECTUAL PROPERTY GMBH, priority 2010, published 2013).

Legend:
[1] = tested on: NCI-H526 human small-cell lung tumor cells; test: NCI-H526 human small-cell lung tumor model; assay type: in vivo, female NMRI nude mice
Excerpt: (§1) Tumor cells grown in cell culture were implanted subcutaneously in the flank of female or male NMRI nude mice. The treatment was started as soon as the tumors had grown to a size of approx. 20 mm^2 The study was ended as soon as the tumors in one of the groups reached a size of approx. 150 mm^2.
(§2) Vehicle group: treatment with solubilizer (40% PEG400/60% water)
(§3) The studies were designed for determining the initial response of the human tumor model to the treatment with the Exemplary compound 2-SI-2. Tumor growth inhibition in percent (TGI) was either calculated at the end of the studies from the tumor weights (TGITW) using the formula 100×[1−(tumor weight of the treatment group/tumor weight of the vehicle group)], or on the day the vehicle group had to be ended from the tumor areas (TGITA) using the formula 100×[1−(tumor area of the treatment group on the day of the measurement−tumor area of the treatment group prior to treatment)/(tumor area of the vehicle group on the day of the measurement−tumor area of the vehicle group prior to treatment)]. In the case of a tumor growth inhibition of more than 50%, the treatment was considered to have been effective.
Efficacy in the NCI-H526 human small-cell lung tumor model.
NCI-H526 human small-cell lung tumor cells implanted into female NMRI nude mice.
• a) 0.20 mg/ml of Example 2-SI-2 in 40% (v/v) PEG 400 in water • b) 0.20 mg/ml of Example 2-SI-2 in 40% (v/v) PEG 400 in water • c) 0.15 mg/ml of Example 2-SI-2 in 40% (v/v) PEG 400 in water • d) 0.17 mg/ml of Example 2-SI-2 in 40% (v/v) PEG 400 in water
• a) 2.0 mg/kg (6.0 mg/m^2), 1× per day. • b) 2.0 mg/kg (6.0 mg/m^2), 2× per day on 2 successive days, followed by 5 treatment-free days. • c) 1.5 mg/kg (4.5 mg/m^2), 2× per day on 3 successive days, followed by 4 treatment-free days. • d) 1.7 mg/kg (5.1 mg/m^2), 2× per day on 3 successive days, followed by 4 treatment-free days.

[2] = tested on: A2780-Cis cisplatin-resistant human ovarial tumor cells; test: A2780-Cis human ovarial tumor model; assay type: in vivo, female NMRI nude mice
Excerpt: as §1, §2, §3
Efficacy in the A2780-Cis human ovarial tumor model.
Efficacy in the A2780-Cis human ovarial tumor model A2780-Cis cisplatin-resistant human ovarial tumor cells implanted into female NMRI nude mice.
• a) 0.20 mg/ml of Example 2-SI-2 in 40% (v/v) PEG 400 in water • b) 0.15 mg/ml of Example 2-SI-2 in 40% (v/v) PEG 400 in water • c) 0.17 mg/ml of Example 2-SI-2 in 40% (v/v) PEG 400 in water
• a) 2.0 mg/kg (6.0 mg/m^2), 1× per day. • b) 1.5 mg/kg (4.5 mg/m^2), 2× per day on 3 successive days, followed by 4 treatment-free days. • c) 1.7 mg/kg (5.1 mg/m^2), 2× per day on 3 successive days, followed by 4 treatment-free days.

A2780 = test: Proliferation assay A2780; assay type: cell-based; conditions: Homo sapiens, 96 h; A2780, ovarial carcinoma; 4 days, crystal violet
Experimental: (§4) Cultivated human tumor cells (originally obtained from ATCC, HeLa-MaTu and HeLa-MaTu-ADR, originally obtained from Epo GmbH, Berlin, Germany) were plated at a density of 1000 to 5000 cells/measuring point, depending on the growth rate of the cell line, in a 96-well multititer plate in 200 μl of growth medium (DMEM/HAMS F12, 2 mM L-glutamine, 10% fetal calf serum). After 24 hours the cells of one plate (zero-point plate) were stained with crystal violet (see below), whereas the medium of the other plates was replaced with fresh culture medium (200 μl), to which the test substances had been added at various concentrations (0 μM, and in the range 0.01-30 μM; the final concentration of the solvent dimethyl sulfoxide was 0.5%). The cells were incubated for 4 days in the presence of the test substances. Cellular proliferation was determined by staining the cells with crystal violet: the cells were fixed by adding 20 μl/measuring point of an 11% glutaraldehyde solution for 15 min at room temperature. […] The extinction was determined photometrically at a wavelength of 595 nm. The percentage change in cell growth was calculated by standardization of the measured values to the extinction values of the zero-point plate (=0%) and the extinction of the untreated (0 μM) cells (=100%). […] The IC50 values were determined by means of a 4-parameter fit using the company's own software. […]

A2780-Cis = test: Proliferation assay A2780-Cis; assay type: cell-based; conditions: Homo sapiens, A2780cis, 96 h, ovarial carcinoma, 4 days, crystal violet
Experimental: as §4

Row | Structure (SMILES) | TGITW (tumor growth inhibition from tumor weights) ([1]; NCI-H526; a) 2.0 mg/kg oral 1× per day) [%] | TGITW (tumor growth inhibition from tumor weights) ([1]; NCI-H526; b) 2.0 mg/kg oral 2× per day on 2 successive days, followed by 5 treatment-free days) [%] | TGITW (tumor growth inhibition from tumor weights) ([1]; NCI-H526; c) 1.5 mg/kg oral 2× per day on 3 successive days, followed by 4 treatment-free days) [%] | TGITW (tumor growth inhibition from tumor weights) ([1]; NCI-H526; d) 1.7 mg/kg oral 2× per day on 3 successive days, followed by 4 treatment-free days) [%] | TGITW (tumor growth inhibition from tumor weights) ([2]; A2780-Cis; a) 2.0 mg/kg oral 1× per day) [%] | TGITW (tumor growth inhibition from tumor weights) ([2]; A2780-Cis; b) 1.5 mg/kg oral 2× per day on 3 successive days, followed by 4 treatment-free days) [%] | TGITW (tumor growth inhibition from tumor weights) ([2]; A2780-Cis; c) 1.7 mg/kg oral 2× per day on 3 successive days, followed by 4 treatment-free days) [%] | IC50 (A2780) [nM] | IC50 (A2780-Cis) [nM]
1 | C[C@@H](O)[C@@H](C)Oc1nc(Nc2ccc(S(C)(=N)=O)cc2)ncc1C(F)(F)F (mixture of isomers) [Example 2-SI-2, (RS)—S-(4-{[4-{[(1R,2R)-2-Hydroxy-1-methylpropyl]oxy}-5-(trifluoromethyl)pyrimidin-2-yl]-amino}phenyl)-S-methylsulfoximide] | 98 | 72 | 79 | 88 | 85 | 88 | 92 |  | 
2 | C[C@@H](O)[C@@H](C)Oc1nc(Nc2ccc(S(C)(=N)=O)cc2)ncc1C(F)(F)F (single isomer, unassigned) [Example 2-SI-2] |  |  |  |  |  |  |  | 3 | 10
